In ChEMBL document CHEMBL5325426, “Structure-based discovery of potent USP28 inhibitors derived from Vismodegib” (Eur J Med Chem, 2023):
The source made the active and inactive calls. The rule behind the calls is not given here.

How the values were obtained:
[1] = molecular target: T1, Ubiquitin carboxyl-terminal hydrolase 28 (Homo sapiens, UniProt Q96RU2); experiment: Inhibition of USP28 (149 to 703 residues) (unknown origin) expressed in Escherichia coli BL21 (DE3) using Ub-AMC as substrate by fluorescence based analysis
T1 sequence (Q96RU2 whole entry): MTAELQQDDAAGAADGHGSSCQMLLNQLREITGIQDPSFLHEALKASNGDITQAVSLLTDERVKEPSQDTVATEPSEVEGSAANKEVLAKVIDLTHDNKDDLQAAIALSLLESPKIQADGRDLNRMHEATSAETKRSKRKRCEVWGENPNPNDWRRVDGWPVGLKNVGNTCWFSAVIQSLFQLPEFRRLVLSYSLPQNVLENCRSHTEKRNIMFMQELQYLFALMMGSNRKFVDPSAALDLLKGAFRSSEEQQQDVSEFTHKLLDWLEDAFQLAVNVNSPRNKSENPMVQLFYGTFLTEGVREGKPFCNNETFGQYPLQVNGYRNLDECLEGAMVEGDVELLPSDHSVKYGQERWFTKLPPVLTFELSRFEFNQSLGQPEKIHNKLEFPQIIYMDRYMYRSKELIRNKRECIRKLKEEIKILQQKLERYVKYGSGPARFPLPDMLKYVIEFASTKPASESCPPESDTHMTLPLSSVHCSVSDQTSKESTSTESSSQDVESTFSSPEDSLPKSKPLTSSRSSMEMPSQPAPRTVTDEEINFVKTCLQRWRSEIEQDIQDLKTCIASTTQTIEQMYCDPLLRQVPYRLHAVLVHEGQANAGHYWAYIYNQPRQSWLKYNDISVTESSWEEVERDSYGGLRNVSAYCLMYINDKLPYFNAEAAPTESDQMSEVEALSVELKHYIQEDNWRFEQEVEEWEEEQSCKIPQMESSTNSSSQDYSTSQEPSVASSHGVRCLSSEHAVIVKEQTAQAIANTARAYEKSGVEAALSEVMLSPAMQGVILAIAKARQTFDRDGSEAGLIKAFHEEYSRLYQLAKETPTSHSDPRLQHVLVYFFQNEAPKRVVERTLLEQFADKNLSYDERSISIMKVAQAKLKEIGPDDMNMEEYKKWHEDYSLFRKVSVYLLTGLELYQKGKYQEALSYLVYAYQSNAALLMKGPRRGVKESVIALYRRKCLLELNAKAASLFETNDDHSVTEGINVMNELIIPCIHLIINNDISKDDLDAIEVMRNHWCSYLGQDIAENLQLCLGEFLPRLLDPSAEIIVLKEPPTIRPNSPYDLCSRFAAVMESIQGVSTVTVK

[2] = molecular target: Ubiquitin carboxyl-terminal hydrolase 7 (Homo sapiens) (UniProt Q93009); experiment: Inhibition of USP7 (208 to 560 residues) (unknown origin) expressed in Escherichia coli BL21 (DE3) using Ub-AMC as substrate at 5 uM by fluorescence based analysis
[3] = molecular target: Ubiquitin carboxyl-terminal hydrolase 9X (Homo sapiens) (UniProt Q93008); experiment: Inhibition of USP9X (1151 to 1970 residues) (unknown origin) expressed in Escherichia coli BL21 (DE3) using Ub-AMC as substrate at 5 uM by fluorescence based analysis
HCT-116 = experiment: Antiproliferative activity against human HCT-116 cells assessed as cell growth inhibition incubated for 3 days by SRB assay; format: functional, cell-based; conditions: HCT-116, 72 h
LS174T [4] = experiment: Antiproliferative activity against human LS174T cells assessed as cell growth inhibition incubated for 3 days by SRB assay; format: functional, cell-based; conditions: 72 h
[5] = molecular target: T2, Ubiquitin carboxyl-terminal hydrolase 25 (Homo sapiens) (UniProt Q9UHP3); experiment: Inhibition of USP25 in human HCT-116 cells assessed as downregulation of Tankyrase 1/2 protein level; format: cell-based
T2 sequence (whole entry): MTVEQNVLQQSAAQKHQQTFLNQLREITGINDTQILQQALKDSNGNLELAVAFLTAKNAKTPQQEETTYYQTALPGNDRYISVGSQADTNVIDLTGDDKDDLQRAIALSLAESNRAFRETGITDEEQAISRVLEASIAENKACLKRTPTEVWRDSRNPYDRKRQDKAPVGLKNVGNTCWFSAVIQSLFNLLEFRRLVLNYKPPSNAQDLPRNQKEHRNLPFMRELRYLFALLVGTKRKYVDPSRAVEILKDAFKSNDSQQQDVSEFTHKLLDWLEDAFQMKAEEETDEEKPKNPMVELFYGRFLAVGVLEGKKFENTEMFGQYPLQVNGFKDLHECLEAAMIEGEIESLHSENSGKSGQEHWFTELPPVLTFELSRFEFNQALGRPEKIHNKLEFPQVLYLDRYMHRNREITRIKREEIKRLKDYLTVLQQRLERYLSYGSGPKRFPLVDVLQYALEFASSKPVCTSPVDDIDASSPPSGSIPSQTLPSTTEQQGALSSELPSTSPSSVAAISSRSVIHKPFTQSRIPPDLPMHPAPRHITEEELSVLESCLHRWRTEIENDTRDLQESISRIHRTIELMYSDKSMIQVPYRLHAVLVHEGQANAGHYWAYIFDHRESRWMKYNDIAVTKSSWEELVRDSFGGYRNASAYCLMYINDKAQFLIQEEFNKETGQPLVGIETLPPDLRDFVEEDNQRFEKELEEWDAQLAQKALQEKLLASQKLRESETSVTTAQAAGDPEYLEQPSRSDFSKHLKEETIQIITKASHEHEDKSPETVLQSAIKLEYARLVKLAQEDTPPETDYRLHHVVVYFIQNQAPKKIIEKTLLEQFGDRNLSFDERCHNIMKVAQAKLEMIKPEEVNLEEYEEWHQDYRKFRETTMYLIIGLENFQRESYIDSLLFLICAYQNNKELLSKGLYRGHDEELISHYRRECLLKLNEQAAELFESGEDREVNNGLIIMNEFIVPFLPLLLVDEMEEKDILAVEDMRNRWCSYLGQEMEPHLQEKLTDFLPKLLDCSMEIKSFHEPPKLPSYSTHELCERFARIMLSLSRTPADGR

LS174T [6] = experiment: Antiproliferative activity against human LS174T cells assessed as cell growth inhibition at 10 to 30 uM incubated for 3 days in presence of Regorafenib by SRB assay; format: functional, cell-based; conditions: dose 10-30 µM, time 3.0 day
LS174T [7] = experiment: Antiproliferative activity against human LS174T cells assessed as effect on Bcl-2 protein level at 20 to 60 uM incubated for 1 day by western blotting analysis; format: functional, cell-based; conditions: dose 20-60 µM

Ubiquitin carboxyl-terminal hydrolase 9X (Homo sapiens), sequence (Q93008 whole entry, the tested form may be a part): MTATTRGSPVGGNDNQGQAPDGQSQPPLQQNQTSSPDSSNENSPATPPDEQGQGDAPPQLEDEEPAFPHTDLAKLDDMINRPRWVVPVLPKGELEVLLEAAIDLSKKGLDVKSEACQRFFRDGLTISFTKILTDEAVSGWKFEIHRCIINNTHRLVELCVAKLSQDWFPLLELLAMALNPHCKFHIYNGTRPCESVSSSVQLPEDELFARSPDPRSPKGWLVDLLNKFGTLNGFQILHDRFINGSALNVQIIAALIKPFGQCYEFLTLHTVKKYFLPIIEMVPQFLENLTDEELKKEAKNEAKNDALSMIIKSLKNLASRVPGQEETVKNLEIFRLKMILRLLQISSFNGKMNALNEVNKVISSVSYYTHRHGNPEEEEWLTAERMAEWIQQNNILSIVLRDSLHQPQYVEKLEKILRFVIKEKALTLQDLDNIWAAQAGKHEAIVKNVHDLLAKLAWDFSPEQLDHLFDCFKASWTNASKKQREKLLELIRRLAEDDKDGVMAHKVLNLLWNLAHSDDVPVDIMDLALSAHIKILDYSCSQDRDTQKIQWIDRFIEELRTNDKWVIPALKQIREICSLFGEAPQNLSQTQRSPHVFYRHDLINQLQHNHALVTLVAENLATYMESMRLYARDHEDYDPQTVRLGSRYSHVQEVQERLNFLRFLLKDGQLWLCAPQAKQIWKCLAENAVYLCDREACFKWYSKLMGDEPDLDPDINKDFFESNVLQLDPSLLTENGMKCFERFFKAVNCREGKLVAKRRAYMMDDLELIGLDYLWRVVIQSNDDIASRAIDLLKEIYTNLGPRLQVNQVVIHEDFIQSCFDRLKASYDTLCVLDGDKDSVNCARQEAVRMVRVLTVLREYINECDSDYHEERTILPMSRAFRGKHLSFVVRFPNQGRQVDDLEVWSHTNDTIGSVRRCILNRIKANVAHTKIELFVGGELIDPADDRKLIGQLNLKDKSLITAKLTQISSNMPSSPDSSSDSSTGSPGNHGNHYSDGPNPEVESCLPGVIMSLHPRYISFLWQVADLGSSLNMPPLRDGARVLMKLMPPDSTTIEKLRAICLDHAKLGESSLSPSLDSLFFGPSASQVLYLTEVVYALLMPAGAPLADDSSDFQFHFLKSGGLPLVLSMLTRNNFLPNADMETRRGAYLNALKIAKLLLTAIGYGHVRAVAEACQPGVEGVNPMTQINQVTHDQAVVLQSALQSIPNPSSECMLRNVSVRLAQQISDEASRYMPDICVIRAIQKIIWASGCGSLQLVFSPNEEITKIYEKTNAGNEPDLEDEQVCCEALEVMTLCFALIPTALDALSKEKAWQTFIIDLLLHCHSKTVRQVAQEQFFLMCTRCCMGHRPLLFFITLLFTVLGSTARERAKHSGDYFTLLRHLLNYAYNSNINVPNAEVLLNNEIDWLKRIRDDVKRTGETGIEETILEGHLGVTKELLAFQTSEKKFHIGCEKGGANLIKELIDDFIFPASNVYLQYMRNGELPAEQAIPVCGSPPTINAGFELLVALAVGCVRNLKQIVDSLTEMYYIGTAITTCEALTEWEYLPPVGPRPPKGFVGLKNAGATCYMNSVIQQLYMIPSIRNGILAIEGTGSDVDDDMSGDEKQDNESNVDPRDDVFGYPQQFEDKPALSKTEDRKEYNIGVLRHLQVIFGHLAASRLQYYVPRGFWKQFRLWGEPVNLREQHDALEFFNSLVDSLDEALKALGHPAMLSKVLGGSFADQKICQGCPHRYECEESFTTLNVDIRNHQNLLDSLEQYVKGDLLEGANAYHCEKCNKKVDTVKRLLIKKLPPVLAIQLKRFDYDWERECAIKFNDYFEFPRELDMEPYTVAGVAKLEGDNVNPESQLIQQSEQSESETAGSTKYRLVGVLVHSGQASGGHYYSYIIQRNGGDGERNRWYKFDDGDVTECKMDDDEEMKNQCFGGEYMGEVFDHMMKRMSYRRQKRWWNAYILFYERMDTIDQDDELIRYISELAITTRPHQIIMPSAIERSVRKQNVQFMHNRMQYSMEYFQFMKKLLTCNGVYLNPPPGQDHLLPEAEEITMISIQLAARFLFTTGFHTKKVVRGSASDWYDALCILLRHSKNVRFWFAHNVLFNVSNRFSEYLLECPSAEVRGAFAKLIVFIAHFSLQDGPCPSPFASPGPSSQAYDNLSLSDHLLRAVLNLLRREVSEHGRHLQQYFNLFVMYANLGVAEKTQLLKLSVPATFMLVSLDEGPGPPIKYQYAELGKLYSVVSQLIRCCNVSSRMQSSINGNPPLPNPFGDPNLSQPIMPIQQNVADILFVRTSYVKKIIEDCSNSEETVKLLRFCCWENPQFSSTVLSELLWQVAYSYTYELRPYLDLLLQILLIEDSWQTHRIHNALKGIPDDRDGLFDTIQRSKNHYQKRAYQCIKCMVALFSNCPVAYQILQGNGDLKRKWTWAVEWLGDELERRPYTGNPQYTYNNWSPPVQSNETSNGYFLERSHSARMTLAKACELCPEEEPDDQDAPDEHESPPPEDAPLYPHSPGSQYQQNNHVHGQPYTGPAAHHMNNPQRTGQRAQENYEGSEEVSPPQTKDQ
Ubiquitin carboxyl-terminal hydrolase 7 (Homo sapiens), sequence (Q93009 whole entry, looked up, the tested form may be a part): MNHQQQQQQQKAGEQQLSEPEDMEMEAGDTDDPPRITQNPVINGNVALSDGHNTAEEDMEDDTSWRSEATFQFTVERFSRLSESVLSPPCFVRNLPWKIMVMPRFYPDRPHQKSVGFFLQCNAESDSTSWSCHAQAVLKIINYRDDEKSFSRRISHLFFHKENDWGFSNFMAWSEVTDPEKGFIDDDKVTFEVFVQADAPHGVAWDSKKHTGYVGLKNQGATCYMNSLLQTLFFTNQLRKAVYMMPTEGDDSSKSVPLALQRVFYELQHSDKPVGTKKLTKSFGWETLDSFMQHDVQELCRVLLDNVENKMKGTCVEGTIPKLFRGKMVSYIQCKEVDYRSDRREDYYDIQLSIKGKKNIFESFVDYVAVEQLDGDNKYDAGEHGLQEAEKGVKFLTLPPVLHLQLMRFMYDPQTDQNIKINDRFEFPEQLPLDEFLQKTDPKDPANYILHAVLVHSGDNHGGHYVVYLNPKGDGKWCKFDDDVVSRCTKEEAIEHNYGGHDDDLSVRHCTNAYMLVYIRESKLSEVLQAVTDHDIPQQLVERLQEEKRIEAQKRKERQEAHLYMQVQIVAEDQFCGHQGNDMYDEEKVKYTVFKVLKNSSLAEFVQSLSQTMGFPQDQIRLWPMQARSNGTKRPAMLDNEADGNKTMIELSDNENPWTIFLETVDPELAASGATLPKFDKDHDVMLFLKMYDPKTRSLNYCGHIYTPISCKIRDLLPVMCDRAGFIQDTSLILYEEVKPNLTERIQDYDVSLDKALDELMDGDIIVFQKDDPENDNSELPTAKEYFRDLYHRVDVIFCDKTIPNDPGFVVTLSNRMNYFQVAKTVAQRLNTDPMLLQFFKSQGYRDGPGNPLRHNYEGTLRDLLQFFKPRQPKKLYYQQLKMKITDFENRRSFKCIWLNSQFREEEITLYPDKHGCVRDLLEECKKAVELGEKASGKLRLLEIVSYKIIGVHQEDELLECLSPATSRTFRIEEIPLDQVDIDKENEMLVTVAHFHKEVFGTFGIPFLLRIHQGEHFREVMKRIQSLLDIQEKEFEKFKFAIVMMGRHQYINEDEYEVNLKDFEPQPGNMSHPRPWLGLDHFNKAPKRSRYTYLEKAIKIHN

Row | IC50 [1] [nM] | inhibition [2] | inhibition [3] | IC50 (HCT-116) [µM] | inhibition [5] | Structure (SMILES) | IC50 (LS174T [4]) [µM] | Activity (LS174T [6]) | Activity (LS174T [7])
1 | 100 | Active | Active | 24.2 | Active | CS(=O)(=O)c1ccc(C(=O)Nc2ccc(Cl)c(-c3ccc4c(c3)CCNC4)c2)c(Cl)c1 | 19.9 | Active | inactive
2 | 40 | Active | Active | 38.1 | Active | CS(=O)(=O)c1ccc(C(=O)Nc2ccc(Cl)c(-c3ccc4c(c3)CNC4)c2)c(Cl)c1 | 24.3 | Active | inactive
3 | 300 | Active | Active | 26 | Active | CS(=O)(=O)c1ccc(C(=O)Nc2ccc(Cl)c(-c3ccc(C4(N)CC4)cc3)c2)c(Cl)c1 | 21.9 | Active | inactive
